One molecule from paper PMC5218480 (PLoS ONE, 2017) can be followed below.

The experiment concerns MV-4-11 cells. The experiment is described as follows: Gene expression microarray analysis (Affymetrix PrimeView) and GSEA. The format is cell-based, human. More on the design: RFU PODN (11730768_x_at) / Fold change /veh PODN (11730768_x_at) / RFU LINC00158 (11744669_a_at) / Fold change /veh LINC00158 (11744669_a_at) / RFU DUSP10 (11751237_a_at) / Fold change /veh DUSP10 (11751237_a_at) / RFU ID3 (11757404_x_at) / Fold change /veh ID3 (11757404_x_at) / RFU PLEKHG5 (11737974_s_at) / Fold change /veh PLEKHG5 (11737974_s_at) / RFU LRRC4B (11730491_at) / Fold change /veh LRRC4B (11730491_at) / RFU GIMAP4 (11747438_a_at) / Fold change /veh GIMAP4 (11747438_a_at) / RFU KRT8 (11758183_x_at) / Fold change /veh KRT8 (11758183_x_at) / RFU CNN1 (11734310_a_at) / Fold change /veh CNN1 (11734310_a_at) / RFU VPS37D (11726825_at) / Fold change /veh VPS37D (11726825_at) / RFU C10orf10 (11716522_x_at) / Fold change /veh C10orf10 (11716522_x_at) / RFU KIR2DL2 /// KIR2DL4 /// KIR2DL5A /// KIR2DL5B /// KIR2DS1 /// KIR2DS2 /// KIR2DS3 /// KIR2DS4 /// KIR3DL3 /// KIR3DL3 /// KIR3DS1 (11738374_at) / Fold change /veh KIR2DL2 /// KIR2DL4 /// KIR2DL5A /// KIR2DL5B /// KIR2DS1 /// KIR2DS2 /// KIR2DS3 /// KIR2DS4 /// KIR3DL3 /// KIR3DL3 /// KIR3DS1 (11738374_at) / RFU C1QL1 (11718748_at) / Fold change /veh C1QL1 (11718748_at) / RFU TMPRSS4 (11747572_a_at) / Fold change /veh TMPRSS4 (11747572_a_at) / RFU HAMP (11756126_x_at) / Fold change /veh HAMP (11756126_x_at) / RFU RNFT2 (11725882_a_at) / Fold change /veh RNFT2 (11725882_a_at) / RFU NR4A2 (11747474_a_at) / Fold change /veh NR4A2 (11747474_a_at) / RFU ABCC12 (11746883_a_at) / Fold change /veh ABCC12 (11746883_a_at) / RFU TMEM136 (11760407_x_at) / Fold change /veh TMEM136 (11760407_x_at) / RFU CLDN22 /// WWC2 (11732394_at) / Fold change /veh CLDN22 /// WWC2 (11732394_at) / RFU HLA-DPB1 (11760878_x_at) / Fold change /veh HLA-DPB1 (11760878_x_at) / RFU SPINT1 (11716480_a_at) / Fold change /veh SPINT1 (11716480_a_at) / RFU GAP43 (11754022_s_at) / Fold change /veh GAP43 (11754022_s_at) / RFU A4GNT (11735810_at) / Fold change /veh A4GNT (11735810_at) / RFU PRB3 (11715151_x_at) / Fold change /veh PRB3 (11715151_x_at) / RFU TUBB4B (11761932_at) / Fold change /veh TUBB4B (11761932_at) / RFU CAPN14 (11732068_a_at) / Fold change /veh CAPN14 (11732068_a_at) / RFU TMCC2 (11721928_a_at) / Fold change /veh TMCC2 (11721928_a_at) / RFU IRGQ (11745062_a_at) / Fold change /veh IRGQ (11745062_a_at) / RFU FAM174B (11720279_a_at) / Fold change /veh FAM174B (11720279_a_at) / RFU TMPRSS4 (11748680_a_at) / Fold change /veh TMPRSS4 (11748680_a_at) / RFU FAM212B (11763350_a_at) / Fold change /veh FAM212B (11763350_a_at) / RFU PLEKHG5 (11743358_a_at) / Fold change /veh PLEKHG5 (11743358_a_at) / RFU ZSCAN30 (11745921_a_at) / Fold change /veh ZSCAN30 (11745921_a_at) / RFU CMKLR1 (11741424_a_at) / Fold change /veh CMKLR1 (11741424_a_at) / RFU LOC101060620 /// MAPK8IP1 (11723275_at) / Fold change /veh LOC101060620 /// MAPK8IP1 (11723275_at) / RFU SPTSSB (11747773_x_at) / Fold change /veh SPTSSB (11747773_x_at) / RFU PRSS12 (11739890_at) / Fold change /veh PRSS12 (11739890_at) / RFU BIN1 (11741810_x_at) / Fold change /veh BIN1 (11741810_x_at) / RFU WNT11 (11732464_a_at) / Fold change /veh WNT11 (11732464_a_at) / RFU C10orf10 (11716521_a_at) / Fold change /veh C10orf10 (11716521_a_at) / RFU C5orf56 (11738089_at) / Fold change /veh C5orf56 (11738089_at) / RFU CYB561 (11721691_x_at) / Fold change /veh CYB561 (11721691_x_at) / RFU ANKRD19P (11752326_a_at) / Fold change /veh ANKRD19P (11752326_a_at) / RFU OR2T12 /// OR2T33 /// OR2T8 (11738714_s_at) / Fold change /veh OR2T12 /// OR2T33 /// OR2T8 (11738714_s_at) / RFU VCAN (11748164_a_at) / Fold change /veh VCAN (11748164_a_at) / RFU JSRP1 (11732532_at) / Fold change /veh JSRP1 (11732532_at) / RFU KRTAP10-11 (11738290_x_at) / Fold change /veh KRTAP10-11 (11738290_x_at) / RFU MYO3A (11730013_a_at) / Fold change /veh MYO3A (11730013_a_at) / RFU EBF3 (11725865_a_at) / Fold change /veh EBF3 (11725865_a_at) / RFU CAMK2N1 (11719241_x_at) / Fold change /veh CAMK2N1 (11719241_x_at) / RFU C5orf56 (11738088_a_at) / Fold change /veh C5orf56 (11738088_a_at) / RFU OLFML3 (11715873_a_at) / Fold change /veh OLFML3 (11715873_a_at) / RFU LOC100653217 /// NTM (11731650_a_at) / Fold change /veh LOC100653217 /// NTM (11731650_a_at) / RFU MAPK11 (11762145_a_at) / Fold change /veh MAPK11 (11762145_a_at) / RFU FIZ1 (11724087_x_at) / Fold change /veh FIZ1 (11724087_x_at) / RFU OASL (11726364_x_at) / Fold change /veh OASL (11726364_x_at) / RFU SOX15 (11748057_x_at) / Fold change /veh SOX15 (11748057_x_at) / RFU CD79A (11719716_a_at) / Fold change /veh CD79A (11719716_a_at) / RFU HIST1H1D (11736915_at) / Fold change /veh HIST1H1D (11736915_at) / RFU CASKIN2 (11723855_a_at) / Fold change /veh CASKIN2 (11723855_a_at) / RFU LOC730098 (11760151_x_at) / Fold change /veh LOC730098 (11760151_x_at) / RFU OR4N2 (11742367_at) / Fold change /veh OR4N2 (11742367_at) / RFU PRRT2 (11749266_a_at) / Fold change /veh PRRT2 (11749266_a_at) / RFU SNX32 (11753110_a_at) / Fold change /veh SNX32 (11753110_a_at) / RFU CDHR5 (11726645_a_at) / Fold change /veh CDHR5 (11726645_a_at) / RFU RCAN1 (11760418_a_at) / Fold change /veh RCAN1 (11760418_a_at) / RFU FAM167A (11723789_a_at) / Fold change /veh FAM167A (11723789_a_at) / RFU FAM26E (11764081_at) / Fold change /veh FAM26E (11764081_at) / RFU ISYNA1 (11749810_s_at) / Fold change /veh ISYNA1 (11749810_s_at) / RFU ACY1 (11761880_at) / Fold change /veh ACY1 (11761880_at) / RFU 11764098_at / Fold change /veh 11764098_at / RFU SAMD14 (11745864_x_at) / Fold change /veh SAMD14 (11745864_x_at) / RFU NPB (11741838_a_at) / Fold change /veh NPB (11741838_a_at) / RFU TMPRSS6 (11731388_a_at) / Fold change /veh TMPRSS6 (11731388_a_at) / RFU KRTAP10-2 (11738614_at) / Fold change /veh KRTAP10-2 (11738614_at) / RFU ARHGAP8 /// PRR5-ARHGAP8 (11727945_x_at) / Fold change /veh ARHGAP8 /// PRR5-ARHGAP8 (11727945_x_at) / RFU KRTAP5-7 /// NADSYN1 (11734609_at) / Fold change /veh KRTAP5-7 /// NADSYN1 (11734609_at) / RFU RASL12 (11751679_a_at) / Fold change /veh RASL12 (11751679_a_at) / RFU CDKN2B (11736163_a_at) / Fold change /veh CDKN2B (11736163_a_at) / RFU PRF1 (11729649_at) / Fold change /veh PRF1 (11729649_at) / RFU, ZNF638 /// ZNF638-IT1 / Fold change vs veh, ZNF638 /// ZNF638-IT1 / RFU, PANK3 / Fold change vs veh, PANK3 / RFU, SH3YL1 / Fold change vs veh, SH3YL1 / RFU, ZEB2 / Fold change vs veh, ZEB2 / RFU, NRIP1 / Fold change vs veh, NRIP1 / RFU, PTTG1IP / Fold change vs veh, PTTG1IP / RFU, CAPN2 / Fold change vs veh, CAPN2 / RFU, MED14 / Fold change vs veh, MED14 / RFU, SNORA58 / Fold change vs veh, SNORA58 / RFU, C1orf63 / Fold change vs veh, C1orf63 / RFU, LRRFIP1 / Fold change vs veh, LRRFIP1 / RFU, NDUFAF7 / Fold change vs veh, NDUFAF7 / RFU, SLC12A2 / Fold change vs veh, SLC12A2 / RFU, IBTK / Fold change vs veh, IBTK / RFU, ESF1 / Fold change vs veh, ESF1 / Fold change vs veh, TMEM50B / RFU, TAOK1 / Fold change vs veh, TAOK1 / RFU, ACBD3 / Fold change vs veh, ACBD3 / RFU, TMA16 / Fold change vs veh, TMA16 / RFU, RWDD3 / Fold change vs veh, RWDD3 / RFU, BCAT1 / Fold change vs veh, BCAT1 / RFU, EDEM3 / Fold change vs veh, EDEM3 / RFU, TMEM33 / Fold change vs veh, TMEM33 / RFU, WDR75 / Fold change vs veh, WDR75 / RFU, AHCTF1 / Fold change vs veh, AHCTF1 / RFU, TFRC / Fold change vs veh, TFRC / RFU, ZDHHC17 / Fold change vs veh, ZDHHC17 / RFU, NOM1 / Fold change vs veh, NOM1 / RFU, ARL8B / Fold change vs veh, ARL8B / RFU, ZBTB11 / Fold change vs veh, ZBTB11 / RFU, TAMM41 / Fold change vs veh, TAMM41 / RFU, KIAA1704 /// LOC100996395 / Fold change vs veh, KIAA1704 /// LOC100996395 / RFU, ING1 / Fold change vs veh, ING1 / RFU, TRMT61B / Fold change vs veh, TRMT61B / RFU, FUBP3 / Fold change vs veh, FUBP3 / RFU, TP53 / Fold change vs veh, TP53 / RFU, TNKS2 / Fold change vs veh, TNKS2 / RFU, ZFP14 / Fold change vs veh, ZFP14 / RFU, ACTR2 / Fold change vs veh, ACTR2 / RFU, PPP3R1 / Fold change vs veh, PPP3R1 / RFU, PIK3R1 / Fold change vs veh, PIK3R1 / RFU, HNRNPA1 / Fold change vs veh, HNRNPA1 / RFU, RNF170 / Fold change vs veh, RNF170 / RFU, ZNF28 / Fold change vs veh, ZNF28 / RFU, RNGTT / Fold change vs veh, RNGTT / RFU, OGT / Fold change vs veh, OGT / RFU, BRD1 / Fold change vs veh, BRD1 / RFU, MARS / Fold change vs veh, MARS / RFU, ZNF655 / Fold change vs veh, ZNF655 / RFU, FAHD1 / Fold change vs veh, FAHD1 / RFU, BDP1 / Fold change vs veh, BDP1 / RFU, LRRCC1 / Fold change vs veh, LRRCC1 / RFU, ARID1A / Fold change vs veh, ARID1A / RFU, ZNF146 / Fold change vs veh, ZNF146 / RFU, ZNF330 / Fold change vs veh, ZNF330 / RFU, GPN3 / Fold change vs veh, GPN3 / RFU, C9orf123 / Fold change vs veh, C9orf123 / RFU, N4BP2L2 / Fold change vs veh, N4BP2L2 / RFU, ARFIP1 / Fold change vs veh, ARFIP1 / RFU, FAM179B / Fold change vs veh, FAM179B / RFU, BCL10 / Fold change vs veh, BCL10 / RFU, UHRF1BP1L / Fold change vs veh, UHRF1BP1L / RFU, BET1 / Fold change vs veh, BET1 / RFU, CNOT2 / Fold change vs veh, CNOT2 / RFU, ZNF268 / Fold change vs veh, ZNF268 / Fold change vs veh, ZNF507 / RFU, DGCR2 / Fold change vs veh, DGCR2 / RFU, WDSUB1 / Fold change vs veh, WDSUB1 / Fold change vs veh, HSP90B1 /// MIR3652 / RFU, ADSS / Fold change vs veh, ADSS / RFU, GK / Fold change vs veh, GK / RFU, ZNF148 / Fold change vs veh, ZNF148 / RFU, TAF9 / Fold change vs veh, TAF9 / RFU, SLC1A5 / Fold change vs veh, SLC1A5 / RFU, SLMO2 / Fold change vs veh, SLMO2 / RFU, ABCC4 / Fold change vs veh, ABCC4 / RFU, LOC101060439 /// RAP1B / Fold change vs veh, LOC101060439 /// RAP1B / RFU, RFX7 / Fold change vs veh, RFX7 / RFU, GTPBP10 / Fold change vs veh, GTPBP10 / RFU, CNEP1R1 / Fold change vs veh, CNEP1R1 / RFU, BIVM-ERCC5 /// ERCC5 / Fold change vs veh, BIVM-ERCC5 /// ERCC5 / RFU, ILF3 / Fold change vs veh, ILF3 / RFU 11762660_at / Fold change /veh 11762660_at / RFU VCAN (11757783_s_at) / Fold change /veh VCAN (11757783_s_at) / RFU DDX43 (11728927_at) / Fold change /veh DDX43 (11728927_at) / RFU KRT8 (11758188_x_at) / Fold change /veh KRT8 (11758188_x_at) / RFU NKD1 (11759106_at) / Fold change /veh NKD1 (11759106_at) / RFU SRD5A1 (11742802_a_at) / Fold change /veh SRD5A1 (11742802_a_at) / RFU TPSAB1 /// TPSB2 (11721975_s_at) / Fold change /veh TPSAB1 /// TPSB2 (11721975_s_at) / RFU GSTM3 (11746129_a_at) / Fold change /veh GSTM3 (11746129_a_at) / RFU IL23R (11737362_x_at) / Fold change /veh IL23R (11737362_x_at) / RFU TMEM51 (11727254_a_at) / Fold change /veh TMEM51 (11727254_a_at) / RFU PIWIL2 (11732686_x_at) / Fold change /veh PIWIL2 (11732686_x_at) / RFU ORM1 (11744905_x_at) / Fold change /veh ORM1 (11744905_x_at) / RFU CCDC152 (11743942_at) / Fold change /veh CCDC152 (11743942_at) / RFU ECM1 (11717891_a_at) / Fold change /veh ECM1 (11717891_a_at) / RFU IL23R (11748794_a_at) / Fold change /veh IL23R (11748794_a_at) / RFU TNFAIP8L3 (11732012_x_at) / Fold change /veh TNFAIP8L3 (11732012_x_at) / RFU MBOAT4 (11741988_at) / Fold change /veh MBOAT4 (11741988_at) / RFU 11764193_at / Fold change /veh 11764193_at / RFU TMEM53 (11763286_at) / Fold change /veh TMEM53 (11763286_at) / RFU MAGEB2 (11727129_at) / Fold change /veh MAGEB2 (11727129_at) / RFU TMEM200A (11744735_a_at) / Fold change /veh TMEM200A (11744735_a_at) / RFU CCDC152 (11751479_a_at) / Fold change /veh CCDC152 (11751479_a_at) / RFU FAM211A (11726209_a_at) / Fold change /veh FAM211A (11726209_a_at) / RFU RGS16 (11746705_a_at) / Fold change /veh RGS16 (11746705_a_at) / RFU VCAN (11755009_s_at) / Fold change /veh VCAN (11755009_s_at) / RFU RHOB (11743442_s_at) / Fold change /veh RHOB (11743442_s_at) / RFU RGS16 (11720943_a_at) / Fold change /veh RGS16 (11720943_a_at) / RFU RGS16 (11720944_at) / Fold change /veh RGS16 (11720944_at) / RFU, VPS4B / Fold change vs veh, VPS4B / RFU, CREB1 / Fold change vs veh, CREB1 / RFU, DNAJC13 / Fold change vs veh, DNAJC13 / RFU, GNAQ / Fold change vs veh, GNAQ / RFU, CDK5R1 / Fold change vs veh, CDK5R1 / RFU, ZRANB3 / Fold change vs veh, ZRANB3 / RFU, CUL4A / Fold change vs veh, CUL4A / RFU, CCNY / Fold change vs veh, CCNY / RFU, UFL1 / Fold change vs veh, UFL1 / RFU, COG3 / Fold change vs veh, COG3 / RFU, DIAPH2 / Fold change vs veh, DIAPH2 / RFU, SKA2 / Fold change vs veh, SKA2 / RFU, AFF3 / Fold change vs veh, AFF3 / RFU, LMF1 / Fold change vs veh, LMF1 / RFU, IPO11 / Fold change vs veh, IPO11 / RFU, DFFB / Fold change vs veh, DFFB / RFU, FOXP1 / Fold change vs veh, FOXP1 / RFU, CARD8 / Fold change vs veh, CARD8 / RFU, STRN3 / Fold change vs veh, STRN3 / RFU, ADK / Fold change vs veh, ADK / RFU, RASSF2 / Fold change vs veh, RASSF2 / RFU, WIPF1 / Fold change vs veh, WIPF1 / RFU, LARP1B / Fold change vs veh, LARP1B / RFU, RASA1 / Fold change vs veh, RASA1 / RFU, RB1 / Fold change vs veh, RB1 / RFU, PPFIA1 / Fold change vs veh, PPFIA1 / RFU, MAT2A / Fold change vs veh, MAT2A / RFU, CCT5 / Fold change vs veh, CCT5 / RFU, WDR92 / Fold change vs veh, WDR92 / RFU, CUX1 / Fold change vs veh, CUX1 / RFU, TTC7A / Fold change vs veh, TTC7A / RFU, TMEM135 / Fold change vs veh, TMEM135 / RFU, DEPTOR / Fold change vs veh, DEPTOR / RFU, CPM / Fold change vs veh, CPM / RFU, DNAJB6 / Fold change vs veh, DNAJB6 / RFU, CACNA2D3 / Fold change vs veh, CACNA2D3 / RFU, DTX4 / Fold change vs veh, DTX4 / RFU, TFCP2 / Fold change vs veh, TFCP2 / RFU, GMCL1 /// GMCL1P1 / Fold change vs veh, GMCL1 /// GMCL1P1 / RFU, AEBP2 / Fold change vs veh, AEBP2 / RFU, SNHG1 /// SNORD22 /// SNORD25 /// SNORD26 /// SNORD27 /// SNORD28 /// SNORD29 /// SNORD31 / Fold change vs veh, SNHG1 /// SNORD22 /// SNORD25 /// SNORD26 /// SNORD27 /// SNORD28 /// SNORD29 /// SNORD31 / Fold change (Aza/veh), C12orf56 (ProbeSet 11735607_a_at) / Fold change (ACY-1035/veh), C12orf56 (ProbeSet 11735607_a_at) / Fold change (Aza/veh), FGFR1OP (ProbeSet 11751329_s_at) / Fold change (ACY-1035/veh), FGFR1OP (ProbeSet 11751329_s_at) / Fold change (Aza/veh), VPS36 (ProbeSet 11739960_a_at) / Fold change (ACY-1035/veh), VPS36 (ProbeSet 11739960_a_at) / RFU SYPL1 (11715823_x_at) / Fold change /veh SYPL1 (11715823_x_at) / RFU IGFBP7 (11715501_s_at) / Fold change /veh IGFBP7 (11715501_s_at) / RFU REEP3 (11722064_at) / Fold change /veh REEP3 (11722064_at) / RFU IGLL1 (11728026_x_at) / Fold change /veh IGLL1 (11728026_x_at): dose or concentration left out as unconfirmed. The note with it: ProbeSet 11727641_at; LIST B.

As to `Nc1ncn([C@@H]2O[C@H](CO)[C@@H](O)[C@H]2O)c(=O)n1` [azacitidine], the “RFU, NOM1” value was 178.62 RFU.
